# Reference: US20230016551A1, “METHOD FOR ADMINISTRATION OF URSODEOXYCHOLIC ACID” (SHILPA MEDICARE LIMITED, priority 2020, published 2023)
# Several values for one entry are separate records, joined by “and”; a condition that tells them apart may be missing. Identical values can stand only once.
# How the values were obtained:
# Format in all cases: in vivo, human
# [1] = system: patients with non-alcoholic fatty liver disease; assay: NAFLD patients: BMI, liver parameters (GGT, AST, ALT) and liver ultrasound grade, intravenous vs oral UDCA; parameters: GGT / AST / ALT: unit not given here; settings: n = 50; for Liver Ultrasound - G: echographic fatty liver grade 0-3; for BMI / ALT / AST / GGT: mean±SD
# Description: Two groups of patients (each group consisting of 50 patients N=50 as disclosed in Table -1) with non-alcoholic fatty liver disease are taken and standardized with the diet of 1300 calories/day (30% proteins, 30% carbohydrates and 40% fat). The first group of patients was treated with 50 mg/kg/day UDCA orally for first two months (500 mg capsules swallowed after meals on average of 2-3 capsules after breakfast, 3-4 capsules after lunch and 3-4 capsules after dinner). The second group of patients was treated with intravenous schedule of UDCA at a dose of 3500 mg each other day (every 48 hours) for a total of 24 intravenous sessions. The lab examinations were performed at time T0 (beginning of the study) and time T1 (end of second month treatment). Each patient of the two groups was submitted to standard echo graphic classification as follows: • Grade 0: No fatty liver • Grade 1 (Mild): Mild diffuse increase in the echogenicity of liver parenchyma or increased hepatorenal contrast with normal diaphragm and intrahepatic vessel borders. • Grade 2 (Moderate): Moderate diffuse increase in the echogenicity of liver parenchyma and increased hepatorenal contrast with slight impairment of diaphragm and intrahepatic vessel borders. • Grade 3 (Severe): In addition to moderate steatosis there was no visualization of posterior portion of the right lobe of liver, intrahepatic vessel borders and diaphragm. Values were presented as mean± standard deviation for quantitative variable and percentages for categorical variables. The two groups were compared by student’s t-test for quantitative variable and chi-square for the categorical variables. Changes from baseline to 12 weeks were compared by paired t-test within each group. Wilcoxon test was used for rating variable comparison before and after treatment in each group.
# [2] = system: patients with non-alcoholic fatty liver disease; assay: NAFLD patients: liver biopsy histology, histology activity index (HAI) score; parameters: scale not given here; settings: individual patients 1-4
# Source text: A. Histology Examination: Only four patients in each group has accepted to undergo the liver biopsy (LB) before and after the treatment with intravenous UDCA and oral UDCA.
# [3] = system: patients with non-alcoholic fatty liver disease; assay: NAFLD patients: liver elastography (stiffness, kPa)
# Source text: B. Elastography in Liver: Ultrasound imaging plays a major role in the diagnosis, monitoring and therapeutic decisions of chronic liver diseases. It has many clinical indications: morphological examination of the liver parenchyma and assessment of the risk of chronic liver disease by investigating for signs of dysmorphism and/or portal hypertension; detecting and characterizing liver lesions; monitoring local treatments and assessment of treatment response. Different levels of fibrosis are assessed using a histological score. The most widely used is the METAVIR score, which incorporates five stages of fibrosis: • F0 (no fibrosis), • F1 (portal fibrosis without septa: minimal fibrosis), • F2 (portal fibrosis with a few septa: moderate fibrosis or clinically significant fibrosis), • F3 (septal fibrosis with many septa but no cirrhosis: severe fibrosis) and F4 (cirrhosis). Staging liver fibrosis in patients with chronic liver disease is essential for patient management as it allows: • 1) To identify the severity of the liver damage in order to decide whether or not to start treatment (chronic viral liver disease) to avoid progression to cirrhosis when the fibrosis becomes significant ( ≥F2); • 2) To assess the progression or regression of liver fibrosis during treatment; • 3) To institute specific monitoring to screen for and treat complications (HCC, Esophageal varices) in patients suffering from cirrhosis and even severe fibrosis ( ≥F3). Conventional ultrasound cannot differentiate accurately the different liver fibrosis stages. Existing tools to assess liver fibrosis include liver biopsy (LB), which is invasive, and other non-invasive methods. The main non-invasive method to assess liver fibrosis is based on a physical parameter that measures the tissue elasticity and is called Elastography. It can replace subjective palpation and is intended to image the mechanical properties of tissues and more particularly their stiffness. The Elastography methods are based on a common approach: measurement of deformation induced in a tissue by a force. This technique uses an external mechanical device or an internal acoustic radiation force (ARFI and SWE) to induce shear waves in the tissue to be explored. The diagnostic action mechanism is based on shear wave, which is generated by an external mechanical impulse and whose speed is measured by an ultrasound one-dimensional probe. The one-dimensional probe (3.5 MHz) is mounted along the axis of an electro-dynamic transducer (vibrator). In this way it is possible to define the liver stiffness by measuring the velocity of elastic shear waves in the liver parenchyma generated by the mechanical impulse. The propagation velocity is directly related to the stiffness of the medium, defined by the Young modulus. […] The elasticity is expressed in kPa (kilopascals) and is measured at depth ranging from 25 to 65 mm in a 1 x4 cm area: the assessed liver volume is therefore two hundred times greater than the volume examined in a liver biopsy (LB). The obtained values range from 2.5 kPa to 75 kPa. Mean liver elasticity in “normal” subject is 5.81±1.54 and 5.23±1.59 kPa respectively for men and women.
# [4] = system: patients with non-alcoholic fatty liver disease; assay: NAFLD patients: gastrointestinal side effects, oral vs intravenous UDCA
# Description: The first group of patients was treated with 50 mg/kg/day UDCA orally for first two months (500 mg capsules swallowed after meals on average of 2-3 capsules after breakfast, 3-4 capsules after lunch and 3-4 capsules after dinner). The second group of patients was treated with intravenous schedule of UDCA at a dose of 3500 mg each other day (every 48 hours) for a total of 24 intravenous sessions. The lab examinations were performed at time T0 (beginning of the study) and time T1 (end of second month treatment). Each patient of the two groups was submitted to standard echo graphic classification as follows: • Grade 0: No fatty liver • Grade 1 (Mild): Mild diffuse increase in the echogenicity of liver parenchyma or increased hepatorenal contrast with normal diaphragm and intrahepatic vessel borders. • Grade 2 (Moderate): Moderate diffuse increase in the echogenicity of liver parenchyma and increased hepatorenal contrast with slight impairment of diaphragm and intrahepatic vessel borders. • Grade 3 (Severe): In addition to moderate steatosis there was no visualization of posterior portion of the right lobe of liver, intrahepatic vessel borders and diaphragm.
# [5] = system: patients with biliary colicky pain due to radiolucent gallstones; assay: Dissolution of gallbladder transparent stones and colicky pain, intravenous vs oral UDCA; settings: for patients with gall stones dissolution by echographic evaluation: n = 10
# Description: 20 patients were recruited aged 35 years to 65 years with sudden burst of biliary colicky pain due to radiolucent gallstones, diameter 0.3 to […] and altered liver enzymes. Some patients are also […] complaining of quite an intense pain with nausea and vomiting but without fever, negative inflammation markers (ESR, CRP) and slight leukocytosis, no rebound tenderness at the gallbladder manual exploration. […] were administered with 3500 mg of UDCA every 12 hours for 6 days from the cubital vein; the very first infusion at the admission was added with 20 mg hyoscine-N-butyl bromide and 75 mg diclofenac as the patients are distressed by excruciating pain.
# [6] = intravenous, 3500 mg every 48 hours, 24 sessions, T0
# [7] = intravenous, 3500 mg every 48 hours, 24 sessions, T1 (end of second month)
# [8] = oral, 50 mg/kg/day for two months, T0
# [9] = oral, 50 mg/kg/day for two months, T1 (end of second month)
# [10] = oral, 50 mg/kg/day for two months
# [11] = oral group, 0.7 g/kg oral UDCA for three months
smiles,measurement,setting,value
"C[C@H](CCC(=O)O)[C@H]1CC[C@H]2[C@@H]3[C@@H](O)C[C@@H]4C[C@H](O)CC[C@]4(C)[C@H]3CC[C@]12C [UDCA, ursodeoxycholic acid]",Liver Ultrasound - G,[1]; [6],3±2
same,Liver Ultrasound - G,[1]; [7],1±0
same,Liver Ultrasound - G,[1]; [8],3±2
same,Liver Ultrasound - G,[1]; [9],2±1
same,BMI,"[1]; intravenous, 3500 mg every 48 hours, 24 sessions, T0 (beginning of the study)",29.06±4.6 kg/m^2
same,ALT,[1]; [6],78.05±5.52
same,AST,[1]; [6],65.54±4.56
same,GGT,[1]; [6],19.52±5.82
same,ALT,[1]; [7],52.6±5.65
same,AST,[1]; [7],44.56±5.52
same,BMI,[1]; [7],26.25±6.2 kg/m^2
same,GGT,[1]; [7],16.77±7.76
same,BMI,"[1]; oral, 50 mg/kg/day for two months, T0 (beginning of the study)",28.18±3.8 kg/m^2
same,ALT,[1]; [8],76.48±4.95
same,AST,[1]; [8],63.25±5.43
same,GGT,[1]; [8],22.7±6.43
same,ALT,[1]; [9],74.32±5.58
same,AST,[1]; [9],59.43±3.39
same,BMI,[1]; [9],27.67±4.2 kg/m^2
same,GGT,[1]; [9],20.83±7.56
same,HAI score: Fibrosis,"[2]; intravenous administration, T0",3 (2×) and 4 (2×)
same,HAI score: Intralobular,"[2]; intravenous administration, T0",0
same,HAI score: Periportal +/- bridging,"[2]; intravenous administration, T0",3 and 2 and 1 (2×)
same,HAI score: Portal inflammation,"[2]; intravenous administration, T0",3 (2×) and 2 (2×)
same,HAI score: Fibrosis,"[2]; intravenous administration, T1",2 and 1 (3×)
same,HAI score: Intralobular,"[2]; intravenous administration, T1",0
same,HAI score: Periportal +/- bridging,"[2]; intravenous administration, T1",1 and 0 (3×)
same,HAI score: Portal inflammation,"[2]; intravenous administration, T1",1 and 0 (2×) and 2
same,HAI score: Fibrosis,"[2]; oral administration, T0",4 (3×) and 3
same,HAI score: Intralobular,"[2]; oral administration, T0",0
same,HAI score: Periportal +/- bridging,"[2]; oral administration, T0",1 (2×) and 3 and 2
same,HAI score: Portal inflammation,"[2]; oral administration, T0",3 (2×) and 2 (2×)
same,HAI score: Fibrosis,"[2]; oral administration, T1",3 (2×) and 2 (2×)
same,HAI score: Intralobular,"[2]; oral administration, T1",0
same,HAI score: Periportal +/- bridging,"[2]; oral administration, T1",1
same,HAI score: Portal inflammation,"[2]; oral administration, T1",2 (3×) and 1
same,liver stiffness by elastography (mean ± SD),"[3]; METAVIR score F ≥3, intravenous administration, T0",20.2±5.7 kPa
same,liver stiffness by elastography (mean ± SD),"[3]; METAVIR score F ≥3, intravenous administration, T1",9.9±5.6 kPa
same,liver stiffness by elastography (mean ± SD),"[3]; METAVIR score F ≥3, oral administration, T0",19.9±7.1 kPa
same,liver stiffness by elastography (mean ± SD),"[3]; METAVIR score F ≥3, oral administration, T1",12.5±6.9 kPa
same,liver stiffness by elastography (mean ± SD),"[3]; METAVIR score F ≥4, intravenous administration, T0",25.3±6.5 kPa
same,liver stiffness by elastography (mean ± SD),"[3]; METAVIR score F ≥4, intravenous administration, T1",18.5±5.9 kPa
same,liver stiffness by elastography (mean ± SD),"[3]; METAVIR score F ≥4, oral administration, T0",23.6±6.8 kPa
same,liver stiffness by elastography (mean ± SD),"[3]; METAVIR score F ≥4, oral administration, T1",19.7±5.8 kPa
same,local or systemic side effects during and after administration,"[4]; intravenous, 3500 mg every 48 hours, 24 sessions",No local or systemic side effects were noted
same,tolerability and compliance,"[4]; intravenous, compared with the capsules to be swallowed",tolerated and preferred in terms of compliance
same,"bloating, share of the patients",[4]; [10],20%
same,colicky pain as side effect,[4]; [10],moderate colicky pain
same,"diarrhoea, share of the patients",[4]; [10],38%
same,"nausea, share of the patients",[4]; [10],15%
same,"reduced appetite, share of the patients",[4]; [10],10%
same,adverse effects of parenteral treatment,"[5]; intravenous 3500 mg every 12 hours for 6 days, 20 patients, first week",no adverse effects
same,patients with gall stones dissolution by echographic evaluation,"[5]; intravenous group, 3500 mg twice a week for 3 months",7 patients
same,average stones volume reduction,"[5]; oral UDCA group, the remaining patients",less than 30%
same,patients in whom colicky pain reappeared during the first 40 days,[5]; [11],4 patients out of 10
same,patients with gall stones dissolution by echographic evaluation,[5]; [11],3 patients
same,reduction of the sludging concretions and overall stones volume compared with pre-treatment imaging,"[5]; parenteral group, the remaining 3 patients",more than 50%
